Reference: the supplement of paper PMC10307832

Legend:
Assay in all cases: relative viability (nuclei count vs DMSO), 5 days (fraction); higher = more cells survive
[1] = compound: C=C(c1ccc(C(=O)O)cc1)c1cc2c(cc1C)C(C)(C)CCC2(C)C [Bexarotene] + CC(=O)c1c(C)c2cnc(Nc3ccc(N4CCNCC4)cn3)nc2n(C2CCCC2)c1=O [Palbociclib] (partner 0.5 µM)
Summary of the method: (§1)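 Lung cancer cell lines, seeded in 1536-well plates, were treated the following day by pin tool with a single drug or with five library-drug doses (not always all listed) in √10 steps on top of a fixed anchor-drug dose. Cells were fixed and nuclei stained in one step after 5 days, and nuclei were counted. Relative viability is the nuclei count for treated wells divided by that for vehicle wells, reported as medians of duplicate plates.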

[2] = compound: C=C(c1ccc(C(=O)O)cc1)c1cc2c(cc1C)C(C)(C)CCC2(C)C [Bexarotene] + CC(C)C[C@H](NC(=O)[C@H](Cc1ccccc1)NC(=O)c1cnccn1)B(O)O [Bortezomib] (partner 0.002 µM)
Summary of the method: as §1

[3] = compound: C=C(c1ccc(C(=O)O)cc1)c1cc2c(cc1C)C(C)(C)CCC2(C)C [Bexarotene] + Cc1nc(NC(=O)N2CCC[C@H]2C(N)=O)sc1-c1ccnc(C(C)(C)C(F)(F)F)c1 [Alpelisib] (partner 2 µM)
Summary of the method: as §1

[4] = compound: C=C(c1ccc(C(=O)O)cc1)c1cc2c(cc1C)C(C)(C)CCC2(C)C [Bexarotene] + Cc1nc(Nc2ncc(C(=O)Nc3c(C)cccc3Cl)s2)cc(N2CCN(CCO)CC2)n1 [Dasatinib] (partner 0.075 µM)
Summary of the method: as §1

Row | Cell Line | relative viability ([1]; first compound 0.08 µM) | relative viability ([1]; first compound 0.253 µM) | relative viability ([1]; first compound 0.8 µM) | relative viability ([1]; first compound 8 µM) | relative viability ([2]; first compound 0.08 µM) | relative viability ([2]; first compound 0.253 µM) | relative viability ([2]; first compound 0.8 µM) | relative viability ([2]; first compound 2.53 µM) | relative viability ([2]; first compound 8 µM) | relative viability ([3]; first compound 0.08 µM) | relative viability ([3]; first compound 0.253 µM) | relative viability ([3]; first compound 0.8 µM) | relative viability ([3]; first compound 2.53 µM) | relative viability ([3]; first compound 8 µM) | relative viability ([4]; first compound 0.08 µM) | relative viability ([4]; first compound 0.253 µM) | relative viability ([4]; first compound 0.8 µM) | relative viability ([4]; first compound 2.53 µM) | relative viability ([4]; first compound 8 µM) | relative viability ([1]; first compound 2.53 µM)
1 | ABC-1 | 0.617 | 0.676 | 0.662 | 0.655 | 0.3 | 0.311 | 0.269 | 0.291 | 0.336 | 0.714 | 0.892 | 0.949 | 0.953 | 0.87 | 0.521 | 0.715 | 0.635 | 0.445 | 0.659 | 
2 | HCC-15 | 0.779 | 0.925 | 0.753 | 0.726 | 1.06 | 1.13 | 1.05 | 0.959 | 1.01 | 0.91 | 0.849 | 0.845 | 0.816 | 0.788 | 0.695 | 0.741 | 0.648 | 0.647 | 0.683 | 0.794
3 | PC-3 [JPC-3] | 0.556 | 0.514 | 0.492 | 0.493 | 0.9 | 0.843 | 0.68 | 0.858 | 0.771 | 1.06 | 1.08 | 0.815 | 0.984 | 0.932 | 0.77 | 0.928 | 0.833 | 0.974 | 0.867 | 0.471
4 | NCI-H1993 | 0.654 | 0.668 | 0.597 | 0.733 | 1.01 | 0.991 | 0.984 | 0.978 | 1.1 | 0.657 | 0.645 | 0.689 | 0.735 | 0.684 | 0.655 | 0.573 | 0.528 | 0.617 | 0.613 | 0.693
5 | NCI-H1915 | 0.555 | 0.5 | 0.442 | 0.423 | 1 | 0.989 | 0.896 | 0.993 | 0.911 | 1.17 | 1.06 | 1.04 | 1 | 0.95 | 0.391 | 0.319 | 0.292 | 0.297 | 0.297 | 0.533
6 | RERF-LC-KJ | 1.07 | 1.02 | 0.817 | 0.922 | 1.17 | 1.12 | 1.03 | 1.06 | 1.17 | 0.712 | 0.784 | 0.723 | 0.715 | 0.77 | 0.757 | 0.707 | 0.703 | 0.825 | 0.742 | 0.999
7 | LOU-NH91 | 0.544 | 0.507 | 0.485 | 0.551 | 0.544 | 0.458 | 0.488 | 0.458 | 0.439 | 0.633 | 0.653 | 0.601 | 0.632 | 0.616 | 0.584 | 0.613 | 0.467 | 0.521 | 0.502 | 0.528
8 | NCI-H2347 | 0.465 | 0.413 | 0.343 | 0.426 | 1.2 | 0.904 | 0.818 | 0.664 | 0.835 | 1.05 | 1.03 | 0.748 | 1.01 | 1.11 | 0.358 | 0.323 |  | 0.259 | 0.244 | 0.368
9 | NCI-H2126 | 0.354 | 0.346 | 0.325 | 0.365 | 1.13 | 1.17 | 1.08 | 1.12 | 1.11 | 0.8 | 0.81 | 0.698 | 0.826 | 0.847 | 0.573 | 0.588 | 0.586 | 0.584 | 0.602 | 0.331
10 | HCC-827 | 0.508 | 0.497 | 0.466 | 0.497 | 0.994 | 1.11 | 0.992 | 0.989 | 1 | 1.05 | 0.844 | 0.969 | 1.04 | 0.917 | 0.284 | 0.465 | 0.419 | 0.35 | 0.344 | 0.482
11 | NCI-H3122 | 0.225 | 0.216 | 0.187 | 0.23 | 1.09 | 1.05 | 1.09 | 1.15 | 1.13 | 0.782 | 0.8 | 0.784 | 0.786 | 0.847 | 0.755 | 0.959 | 0.729 | 0.768 | 0.701 | 0.254
12 | HOP-62 | 0.502 | 0.516 | 0.451 | 0.491 | 0.611 | 1.05 | 0.916 | 0.645 | 0.81 | 1.35 | 1.4 | 1.03 | 1.12 | 0.917 | 0.677 | 0.641 | 0.428 | 0.606 | 0.57 | 0.409
